Test results published in the supplement of paper PMC10307832.

Tests used:
Test in all cases: relative viability (nuclei count vs DMSO), 5 days (fraction); higher = more cells survive
[1] = compound: CN1CCC(CC1)OC2=CC(=C(C=C2)NC3=NC=C4C(=N3)N(C(=O)N4C)C5CCCC5)OC [AZ3146] + Nc1ncn([C@H]2C[C@H](O)[C@@H](CO)O2)c(=O)n1 [Decitabine] (partner 2 µM)
Outline: (§1)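 For relative viability, nuclei counts in treated wells were divided by those in vehicle wells. Lung cancer cell lines had been pin-tool dosed in 1536-well plates the day after seeding and cultured for 5 days, then fixed and stained in one step (final 0.05% Triton X-100, 1% formaldehyde, 1 ug/ml Hoechst) and imaged at 4×. Doses were one drug alone or a fixed anchor-drug dose plus five library-drug doses (not always all listed) in √10 steps, and values are duplicate-plate medians.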

[2] = compound: CN1CCC(CC1)OC2=CC(=C(C=C2)NC3=NC=C4C(=N3)N(C(=O)N4C)C5CCCC5)OC [AZ3146] + COc1cccc2cc(-c3nc([C@H]4CC[C@H](C(=O)O)CC4)n4ncnc(N)c34)[nH]c12 [OSI-027] (partner 0.5 µM)
Outline: as §1

[3] = compound: CCOC(=O)CCNc1cc(N2CCc3ccccc3CC2)nc(-c2ccccn2)n1 [GSK-J4] + Nc1nc2[nH]cc(CCc3ccc(C(=O)N[C@@H](CCC(=O)O)C(=O)O)cc3)c2c(=O)[nH]1 [Pemetrexed] (partner 0.2 µM)
Outline: as §1

[4] = compound: CN1CCC(CC1)OC2=CC(=C(C=C2)NC3=NC=C4C(=N3)N(C(=O)N4C)C5CCCC5)OC [AZ3146] + O=C(c1cc(Cc2n[nH]c(=O)c3ccccc23)ccc1F)N1CCN(C(=O)C2CC2)CC1 [Olaparib] (partner 8 µM)
Outline: as §1

Cell Line | relative viability ([1]; first compound 0.08 µM) | relative viability ([1]; first compound 0.253 µM) | relative viability ([1]; first compound 0.8 µM) | relative viability ([1]; first compound 2.53 µM) | relative viability ([1]; first compound 8 µM) | relative viability ([2]; first compound 0.08 µM) | relative viability ([2]; first compound 0.253 µM) | relative viability ([2]; first compound 0.8 µM) | relative viability ([2]; first compound 2.53 µM) | relative viability ([2]; first compound 8 µM) | relative viability ([3]; first compound 0.5 µM) | relative viability ([3]; first compound 1.581 µM) | relative viability ([3]; first compound 5 µM) | relative viability ([3]; first compound 15.81 µM) | relative viability ([3]; first compound 50 µM) | relative viability ([4]; first compound 0.08 µM) | relative viability ([4]; first compound 0.253 µM) | relative viability ([4]; first compound 0.8 µM) | relative viability ([4]; first compound 2.53 µM) | relative viability ([4]; first compound 8 µM)
NCI-H838 | 0.46 | 0.474 | 0.422 | 0.501 | 0.281 | 0.38 | 0.432 | 0.341 | 0.325 | 0.373 | 0.242 | 0.219 | 0.218 | 0.248 | 0.199 | 0.771 | 0.769 | 0.766 | 0.724 | 0.253
NCI-H1793 | 0.252 | 0.523 | 0.456 | 0.283 | 0.488 | 0.321 | 0.256 | 0.226 | 0.329 | 0.247 | 1.01 | 0.6 | 0.684 | 0.235 | 0.167 | 0.864 | 0.859 | 0.667 | 0.892 | 0.544
NCI-H1792 | 0.399 | 0.503 | 0.54 | 0.641 | 0.669 | 0.638 | 0.735 | – | 0.699 | 0.714 | 0.799 | 0.595 | 0.501 | 0.632 | 0.777 | 0.351 | 0.522 | 0.384 | 0.42 | 0.434
NCI-H1355 | 0.336 | 0.32 | 0.362 | 0.423 | 0.361 | 0.396 | 0.395 | 0.324 | 0.441 | 0.345 | 0.988 | 0.975 | 0.889 | 0.858 | 0.992 | 0.72 | 0.761 | 0.759 | 0.83 | 0.807
